Tests used:
Carbonic anhydrase 1 [1] = biological target: T1, Carbonic anhydrase 1 (Homo sapiens, UniProt P00915); assay: Inhibition of human CA1 by stopped flow CO2 hydrase assay
[2] = biological target: T2, Vascular endothelial growth factor receptor 2 (Homo sapiens, UniProt P35968); assay: Inhibition of hypoxia induced VEGFR-2 (unknown origin)
Carbonic anhydrase 1 [3] = biological target: T1, Carbonic anhydrase 1
Description: Inhibition of human CA1 preincubated for 6 hrs by phenol red staining based stopped flow CO2 hydrase assay

[4] = biological target: T2, Vascular endothelial growth factor receptor 2; assay: Inhibition of VEGFR-2 (unknown origin)
PANC-1 = assay: Cytotoxicity against human PANC-1 cells under hypoxia condition by MTT assay; type: functional, cell-based
[5] = Cytotoxicity against African green monkey Vero cells under hypoxic condition by MTT assay; conditions: African green monkey (Chlorocebus sabaeus)
Ehrlich [6] = conditions: dose 5 mg/kg; route ip; time 14 day
Description: Antitumor activity against mouse EAC cells implanted in Swiss albino mouse assessed as T/C ratio at 5 mg/kg, ip measured on day 5, 10 and 14

Ehrlich [7] = assay: animal or person; conditions: Mus musculus, 336 h, read-out: GI

T2 sequence (P35968 whole entry): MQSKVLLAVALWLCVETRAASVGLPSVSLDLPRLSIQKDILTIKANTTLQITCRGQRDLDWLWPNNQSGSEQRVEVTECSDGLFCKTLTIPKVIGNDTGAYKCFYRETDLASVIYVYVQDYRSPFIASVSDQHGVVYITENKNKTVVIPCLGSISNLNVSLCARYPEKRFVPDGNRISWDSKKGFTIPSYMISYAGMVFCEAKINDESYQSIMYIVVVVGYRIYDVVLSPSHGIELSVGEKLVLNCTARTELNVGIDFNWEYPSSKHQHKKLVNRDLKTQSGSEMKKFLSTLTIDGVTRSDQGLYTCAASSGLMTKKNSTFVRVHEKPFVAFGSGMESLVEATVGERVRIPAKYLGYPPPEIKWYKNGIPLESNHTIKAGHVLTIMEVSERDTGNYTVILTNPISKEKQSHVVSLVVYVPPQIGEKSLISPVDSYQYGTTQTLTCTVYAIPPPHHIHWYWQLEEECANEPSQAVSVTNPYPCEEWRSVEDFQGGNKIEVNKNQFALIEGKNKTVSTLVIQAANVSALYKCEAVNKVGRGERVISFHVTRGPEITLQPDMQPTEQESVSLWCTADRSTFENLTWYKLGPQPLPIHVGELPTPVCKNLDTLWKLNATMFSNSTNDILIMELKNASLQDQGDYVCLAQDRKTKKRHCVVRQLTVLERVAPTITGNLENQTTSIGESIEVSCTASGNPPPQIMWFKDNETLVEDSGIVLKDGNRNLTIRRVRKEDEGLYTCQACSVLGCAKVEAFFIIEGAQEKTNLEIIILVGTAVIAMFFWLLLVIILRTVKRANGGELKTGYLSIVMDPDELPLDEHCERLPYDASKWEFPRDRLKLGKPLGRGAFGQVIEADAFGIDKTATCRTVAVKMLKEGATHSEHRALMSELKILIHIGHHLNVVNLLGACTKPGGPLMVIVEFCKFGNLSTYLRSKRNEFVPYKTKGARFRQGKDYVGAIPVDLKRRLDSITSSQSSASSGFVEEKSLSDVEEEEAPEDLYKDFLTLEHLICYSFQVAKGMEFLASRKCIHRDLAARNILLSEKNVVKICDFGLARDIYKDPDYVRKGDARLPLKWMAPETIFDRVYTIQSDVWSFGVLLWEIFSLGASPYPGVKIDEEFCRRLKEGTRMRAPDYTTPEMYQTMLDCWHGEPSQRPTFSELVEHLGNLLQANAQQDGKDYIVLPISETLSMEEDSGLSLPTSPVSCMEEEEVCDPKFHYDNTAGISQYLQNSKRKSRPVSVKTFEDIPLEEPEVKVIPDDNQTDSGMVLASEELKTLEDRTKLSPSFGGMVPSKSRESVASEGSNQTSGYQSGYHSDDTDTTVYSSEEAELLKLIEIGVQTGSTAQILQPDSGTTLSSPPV
T1 sequence (P00915 whole entry): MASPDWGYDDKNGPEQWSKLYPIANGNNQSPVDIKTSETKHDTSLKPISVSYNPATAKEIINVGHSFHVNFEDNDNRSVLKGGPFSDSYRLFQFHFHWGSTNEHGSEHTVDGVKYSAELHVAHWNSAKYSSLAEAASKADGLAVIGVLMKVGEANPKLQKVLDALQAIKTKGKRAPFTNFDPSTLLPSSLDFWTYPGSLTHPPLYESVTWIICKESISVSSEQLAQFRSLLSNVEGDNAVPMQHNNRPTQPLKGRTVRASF

Structure (SMILES) | Ki (Carbonic anhydrase 1 [3]) [µM] | further results
Cc1nc(-c2cc3ccccc3oc2=O)ccc1C(=O)/C=C/c1cccs1 |  | Ki (Carbonic anhydrase 1 [1]): 1.1 µM
CCOc1cccc2cc(/C(C)=N/Nc3nc(-c4ccc(OC)cc4)cs3)c(=O)oc12 | > 100 | IC50 [2]: 0.0348 µM
CCOc1cccc2cc(/C(C)=N/Nc3nc(-c4cc5cccc(OCC)c5oc4=O)cs3)c(=O)oc12 | > 100 | 
CCOc1cccc2cc(/C(C)=N/Nc3nc(-c4ccccc4)cs3)c(=O)oc12 | > 100 | IC50 [2]: 0.0686 µM
CCOc1cccc2cc(/C(C)=N/Nc3nc(-c4ccc(Cl)cc4)cs3)c(=O)oc12 | > 100 | 
CCOc1cccc2cc(/C(C)=N/Nc3nc(-c4cc5cc(Br)ccc5oc4=O)cs3)c(=O)oc12 | > 100 | 
C/C(=N\NC(=S)Nc1ccc(Br)cc1)c1cc2ccccc2oc1=O |  | IC50 [4]: 0.082 µM
CCOc1cccc2cc(/C(C)=N/Nc3nc(-c4ccc(C)cc4)cs3)c(=O)oc12 | > 100 | 
CCOc1cccc2cc(/C(C)=N/Nc3nc(-c4cc5ccc(OC)cc5oc4=O)cs3)c(=O)oc12 | > 100 | 
O=C(CN1C(=O)S/C(=C\c2cccs2)C1=O)c1cc2ccccc2oc1=O | > 100 | 
CCOc1cccc2cc(/C(C)=N/Nc3nc(-c4ccc([N+](=O)[O-])cc4)cs3)c(=O)oc12 | > 100 | 
CCOc1cccc2cc(/C(C)=N/Nc3nc(-c4ccc(Br)cc4)cs3)c(=O)oc12 | > 100 | 
CCOc1cccc2cc(/C(C)=N/Nc3nc(-c4ccc(F)cc4)cs3)c(=O)oc12 | > 100 | IC50 [2]: 0.0321 µM
COc1cccc2c1C(=O)c1c(O)c3c(c(O)c1C2=O)C[C@@](O)(C(=O)CO)C[C@@H]3O[C@H]1C[C@H](N)[C@H](O)[C@H](C)O1 [DOXORUBICIN] |  | IC50 (PANC-1): 6.9 µM; IC50 [5]: 8.7 µM; T/C (Ehrlich [6]): 40.89; inhibition in vivo at 5 mg/kg (Ehrlich [7]): 67%

From ChEMBL document CHEMBL5506018, “Discovery and Mechanistic Studies of Dual-Target Hits for Carbonic Anhydrase IX and VEGFR-2 as Potential Agents for Solid Tumors: X-ray, In Vitro, In Vivo, and In Silico Investigations of Coumarin-Based Thiazoles” (J Med Chem, 2024)
